Where two headings read alike, the source gives them in different places.

From patent US6432952B1, “Polymorphic form of a tachykinin receptor antagonist” (Merck & Co., Inc., priority 1999, dated 2002) come the findings set out here.

Series [1] can be described thus: Solubility in isopropyl acetate. The series is classed as physicochemical. The procedure:
Solubility The solubility of Form I of 2-(R)-(1-(R)-(3,5-bis(trifluoromethyl)-phenyl)ethoxy)-4-(5-(dimethylamino)methyl-1,2,3-triazol-4-yl)methyl-3-(S)-(4-fluorophenyl)morpholine hydrochloride in isopropyl acetate at 25° C. was determined to be 7.4±0.3 mg/ml.

Series [2] can be described thus: Stability of the crystalline form as neat solid. The series is classed as physicochemical.
The subject of series [3] is retching and vomiting induced by cisplatin. Nature of the series: Ferret model of cisplatin-induced emesis (Tattersall et al.). Type of series: in vivo.

Broadly, the solubility is how much of the substance goes into solution per volume. In the case of `C[C@@H](O[C@H]1OCCN(Cc2nn[nH]c2CN(C)C)[C@H]1c1ccc(F)cc1)c1cc(C(F)(F)F)cc(C(F)(F)F)c1.Cl` [Form I, 2-(R)-(1-(R)-(3,5-bis(trifluoromethyl)phenyl)ethoxy)-4-(5-(dimethylamino)methyl-1,2,3-triazol-4-yl)methyl-3-(S)-(4-fluorophenyl)morpholine hydrochloride], the solubility in series [1] came out at 10900 ± 1100 µg/mL; in series [1] (25 °C, organic solvent or mixture, solubility), 7400 ± 300 µg/mL. The “thermodynamic stability of Form I over Form II, from the ratio of the solubilities” value in series [1] (at 25° C., isopropyl acetate) is “approximately 0.2 kcal/mol”. Moreover, in series [2] (Form I versus Form II), the “thermodynamic stability relative to the other form” value was “thermodynamically more stable than Form II”. The thermal stability result in series [2] (as a neat solid) is reported as “high degree of thermal stability”.

Regarding `C[C@@H](O[C@H]1OCCN(Cc2nn[nH]c2CN(C)C)[C@H]1c1ccc(F)cc1)c1cc(C(F)(F)F)cc(C(F)(F)F)c1.Cl` [compound of the present invention, 2-(R)-(1-(R)-(3,5-bis(trifluoromethyl)phenyl)ethoxy)-4-(5-(dimethylamino)methyl-1,2,3-triazol-4-yl)methyl-3-(S)-(4-fluorophenyl)-morpholine hydrochloride], in series [3], the “effect on retching and vomiting induced by cisplatin” value is “attenuate the retching and vomiting induced by cisplatin”.
